Holding throughout (format): functional
A short description of test [1]: Inhibition of gram negative (resistant) growth.
Test [2] in a line: Inhibition of gram positive bacteria growth.
Test [3] can be described thus: Inhibition of gram negative bacteria growth.
For another test, the system named is Staphylococcus aureus. Description: Inhibition of gram positive (resistant) bacteria growth.

The structures appear in SMILES notation. Converted amounts (≈) assume the structure as drawn. Some results are limits rather than exact numbers.

As usually defined, the MIC is the lowest concentration that inhibits growth of the organism. Low values mean greater potency, high ones weaker potency. As to `CC1=C(C(=O)O)N2C(=O)C(NC(=O)Cc3ccccc3)C2SC1` (centres undefined), the MIC was above 200 µg/mL in test [1], 6.2 µg/mL (≈ 18.7 µM) in test [2], 123 µg/mL (≈ 370 µM) in test [3] and 200 µg/mL (≈ 602 µM) in the test on Staphylococcus aureus.
The matching figures for `CC(=O)OCC1=C(C(=O)O)N2C(=O)C(NC(=O)CCON=C3CCCCC3)C2SC1` (centres undefined): above 200 µg/mL, 0.5 µg/mL (≈ 1.14 µM), 174 µg/mL (≈ 396 µM) and 1.9 µg/mL (≈ 4.32 µM).
The matching figures for `CC(=O)OCC1=C(C(=O)O)N2C(=O)C(NC(=O)CCON=C(C)C)C2SC1` (centres undefined): above 200 µg/mL, 1.7 µg/mL (≈ 4.26 µM), 174 µg/mL (≈ 436 µM) and 6.2 µg/mL (≈ 15.5 µM).
The matching figures for `CC(=O)OCC1=C(C(=O)O)N2C(=O)C(NC(=O)CCO/N=C\c3ccccc3)C2SC1` (centres undefined): above 200 µg/mL, 0.22 µg/mL (≈ 0.492 µM), 71 µg/mL (≈ 159 µM) and 4 µg/mL (≈ 8.94 µM).
Regarding `CC1(C)SC2C(NC(=O)CCO/N=C/c3ccccc3)C(=O)N2[C@H]1C(=O)[O-].[K+]` (some centres undefined), the MIC was above 200 µg/mL in test [1], 0.1 µg/mL in test [2], 136 µg/mL in test [3] and 50 µg/mL against Staphylococcus aureus.
The like results for `CC1=C(C(=O)O)N2C(=O)C(NC(=O)CCON=C3CCCC3)C2SC1` (centres undefined) were, in that order, above 200 µg/mL, 9.1 µg/mL (≈ 24.8 µM), 131 µg/mL (≈ 357 µM) and 79 µg/mL (≈ 215 µM).
As to `CC1(C)SC2C(NC(=O)CCON=C3c4ccccc4-c4ccccc43)C(=O)N2[C@H]1C(=O)[O-].[K+]` (some centres undefined), the MIC in test [1] was above 200 µg/mL; in test [2], 0.06 µg/mL; in test [3] it was 131 µg/mL; against Staphylococcus aureus, 8 µg/mL.
As for `[3H]C([3H])([3H])N1C(=O)CN=C(c2ccc(Cl)cc2)c2cc(Cl)ccc21` [[3H]-RO-54864], the MIC was above 200 µg/mL in test [1], 0.59 µg/mL (≈ 1.81 µM) in test [2], 71 µg/mL (≈ 218 µM) in test [3] and 7.3 µg/mL (≈ 22.4 µM) against Staphylococcus aureus.
The like results for `CC1(C)S[C@@H]2[C@H](NC(=O)Cc3ccccc3)C(=O)N2[C@H]1C(=O)O` [PENICILLIN G] were, in that order, above 200 µg/mL, 0.05 µg/mL (≈ 0.15 µM), 71 µg/mL (≈ 212 µM) and 79 µg/mL (≈ 236 µM).
In the case of `CC1=C(C(=O)O)N2C(=O)[C@@H](NC(=O)[C@H](N)c3ccccc3)[C@H]2SC1` [CEPHALEXIN ANHYDROUS], the minimum inhibitory concentration (MIC) in test [1] was above 100 µg/mL; in test [2], 0.4 µg/mL (≈ 1.15 µM); in test [3], 2 µg/mL (≈ 5.76 µM); against Staphylococcus aureus it was 20 µg/mL (≈ 57.6 µM).
The matching figures for `CCCC(CCC)=NOCCC(=O)NC1C(=O)N2C(C(=O)O)=C(COC(C)=O)CSC12` (centres undefined): above 200 µg/mL, 0.73 µg/mL (≈ 1.6 µM), 93 µg/mL (≈ 204 µM) and 10 µg/mL (≈ 22 µM).
The matching figures for `CC1=C(C(=O)O)N2C(=O)C(NC(=O)CCO/N=C(\C)c3ccc(Cl)cc3)C2SC1` (centres undefined): above 200 µg/mL, 4.7 µg/mL (≈ 10.7 µM), above 200 µg/mL and 63 µg/mL (≈ 144 µM).
For the compound `CC1(C)S[C@@H]2[C@H](NC(=O)[C@H](N)c3ccccc3)C(=O)N2[C@H]1C(=O)O` [AMPICILLIN], the minimum inhibitory concentration (MIC) in test [1] is above 200 µg/mL; in test [2], 0.04 µg/mL (≈ 0.114 µM); in test [3], 1 µg/mL (≈ 2.86 µM); against Staphylococcus aureus, 10 µg/mL (≈ 28.6 µM).
The matching figures for `CC(=O)OCC1=C(C(=O)O)N2C(=O)C(NC(=O)CCON=C3c4ccccc4-c4ccccc43)C2SC1` (centres undefined): above 100 µg/mL, 0.02 µg/mL (≈ 0.0383 µM), 44 µg/mL (≈ 84.4 µM) and 0.25 µg/mL (≈ 0.479 µM).
The matching figures for `CC(=O)OCC1=C(C(=O)[O-])N2C(=O)C(NC(=O)CCO/N=C(\C)c3ccc(Cl)cc3)C2SC1.[K+]` (centres undefined): above 200 µg/mL, 0.25 µg/mL, 151 µg/mL and 4 µg/mL.
The matching figures for `CCCC(CCC)=NOCCC(=O)NC1C(=O)N2C(C(=O)O)=C(C)CSC12` (centres undefined): above 200 µg/mL, 16.4 µg/mL (≈ 41.3 µM), above 200 µg/mL and 100 µg/mL (≈ 252 µM).
For the compound `CC1(C)SC2C(NC(=O)CCON=C3CCCCC3)C(=O)N2[C@H]1C(=O)[O-].[K+]` (some centres undefined), the minimal inhibitory concentration (MIC) in test [1] is above 200 µg/mL; in test [2], 0.2 µg/mL; in test [3], 107 µg/mL; against Staphylococcus aureus it was 25 µg/mL.
The like results for `CC(=O)OCC1=C(C(=O)O)N2C(=O)C(NC(=O)Cc3ccccc3)C2SC1` (centres undefined) were, in that order, above 200 µg/mL, 1.06 µg/mL (≈ 2.72 µM), 29 µg/mL (≈ 74.3 µM) and 12.6 µg/mL (≈ 32.3 µM).
The matching figures for `CC1=C(C(=O)O)N2C(=O)C(NC(=O)CCO/N=C\c3ccccc3)C2SC1` (centres undefined): above 200 µg/mL, 8.2 µg/mL (≈ 21.1 µM), above 200 µg/mL and 79 µg/mL (≈ 203 µM).
The matching figures for `CC1(C)SC2C(NC(=O)CCON=C3CCCC3)C(=O)N2[C@H]1C(=O)[O-].[K+]` (some centres undefined): above 200 µg/mL, 0.06 µg/mL, 53 µg/mL and 25 µg/mL.
For `CC1=C(C(=O)O)N2C(=O)C(NC(=O)CCON=C3CCCCC3)C2SC1` (centres undefined), the MIC in test [1] was above 200 µg/mL; in test [2] it was 7.3 µg/mL (≈ 19.1 µM); in test [3], 131 µg/mL (≈ 343 µM); in the test with Staphylococcus aureus, 79 µg/mL (≈ 207 µM).

Source of the values: ChEMBL document CHEMBL1124506, “Synthesis and antimicrobial properties of substituted beta-aminoxypropionyl penicillins and cephalosporins” (1989).
